Assay results taken from patent US20100136541A1, “IDENTIFICATION AND VERIFICATION OF METHYLATION MARKER SEQUENCES” (Siemens Healthcare Diagnostics Inc., priority 2003, published 2010).

Key:
Experiment in all cases: Affymetrix expression profiling of treated and untreated cell lines (restoration of gene expression)
Type in all cases: cell-based, human
[1] = test system: CA4; details: cell line LS174T, treated vs untreated
Protocol: (§1) Twenty well characterized, microdissected samples of colorectal cancer tissue were obtained from consenting patients. A second set of twenty, microdissected samples of normal adjacent colon tissue were also obtained. Total RNA was extracted from these samples using RNeasy kits (QIAGEN, Valencia, Calif.) according to the manufacturer's instructions. Expression profiling was performed using the GeneChip expression arrays from Affymetrix (Santa Clara, Calif.). Reverse transcription, second-strand synthesis, and probe generation was accomplished by standard Affymetrix protocols. The Human Genome U133A GeneChip, which contains more than 15,000 substantiated human genes, was hybridized, washed, and scanned according to Affymetrix protocols. Changes in cellular mRNA levels in the cancerous tissues were compared with mRNA levels in the normal colon tissues. GeneSpring v4.2 (Silicon Genetics, Redwood City, Calif.) was used to normalize and scale results and compare gene expression levels in the cancer tissue relative to that in the normal tissue.
(§2) Further support for the clinical importance of these sites comes from the changes seen in gene expression of the genes after treatment of cell lines with 5-aza-2′-deoxyctyidine. These values were obtained from Affymetrix expression profiling of treated and untreated cell lines using the procedure described above.

[2] = test system: GPX3; details: cell line LS174T, treated vs untreated
Protocol: as §1, §2

[3] = test system: SCNN1B; details: cell line LS123, treated vs untreated
Protocol: as §1, §2

SMILES: Nc1ncn([C@H]2C[C@H](O)[C@@H](CO)O2)c(=O)n1 [5-aza-2′-deoxycytidine]
- restoration of gene expression of CA4 after treatment [1]: 2.8 fold
- restoration of gene expression of GPX3 after treatment [2]: 8.5 fold
- restoration of gene expression of SCNN1B after treatment [3]: 4.1 fold
